# Laboratory results from patent publication US20210177814A1, “USE OF GUANABENZ OR DERIVATES THEREOF FOR THE TREATMENT OF TYPE I IFN-DEPENDENT PATHOLOGIES” (INSERM (Institut National de la Santé et de la Recherche …, priority 2018, published 2021).
# Key:
# [1] = test system: TLR9 signal transduction pathway; assay: Phospho-flow detection of rpS6 phosphorylation after CpG exposure; assay type: cell-based; conditions: CAL-1 and human B cells, 15 min to 1 h of CpG exposure, data not shown
# [2] = test system: dendritic cells (TLR stimulation); assay: IFN-β and IL-6 production by WT and GADD34ΔC/ΔC DCs stimulated with TLR ligands; assay type: cell-based, mouse; conditions: GBZ 50 μM
# Method: BM-derived DCs were differentiated in vitro from the bone marrow of 6-8 weeks old male mice, using either FLT3 ligand or GM-CSF. Flt3L-DCs were used for experiments between days 6 and 7. Flt3L was produced using B16-Flt3L hybridoma cells. Bone marrow progenitors were plated at 1.5 10^6 cells/ml, 4 ml/well in 6 well plate, and cultivated with RPMI (GIBCO), 10% FCS (Sigma Aldrich), 100 units/ml penicillin and 100 μg/ml streptomycin (GIBCO), 50 μM b-mercaptoethanol (VWR) and Flt3L. For sorted Flt3L-DCs, cells were gently harvested at day 7 with cold PBS 2% FCS, centrifuged 1200 rpm 5 min at 4° C., counted and stained with for 30 mins at 4° C. Cells were sorted with the FACS ARIASorp. Cells were kept on ice all the time. After sorting, cells were resuspended in supplemented Flt3L-DCs medium at the concentration of 0.2 0.10^6 cells/well and plated at in a 96 wells plate U bottom. GM-CSF DCs were produced and used for experiments at day 6 of differentiation.
# Splenocytes were dissociated injecting Liberase TL, followed by 25 min incubation at 37° C. Cells were washed using MACS buffer (PBS 1X+1% FBS+2 mM EDTA) and passed in a cell strainer 70 μm, then centrifuged 5 min at 450 RCF, 4° C. Red blood cells were lysed using the commercial buffer from eBioscience. Dendritic cells were purified using CD11c^+ positive selection kit from Miltenyi. Splenic DCs were then resuspended in the same medium as for Flt3L-DCs at 1.10^6 cells/ml and plated in a 12 wells plate, 2 ml×well. B lymphocytes were purified using B cell isolation kit, a negative selection kit from Miltenyi. B cells were then resuspended in a medium composed of RPMI (GIBCO), 10% FCS (Sigma Aldrich), lx glutamine, 1× non-essential amino acids, 10 mM HEPES (all the previous from GIBCO), 50 μM b-mercaptoethanol (VWR). Cells were plated at 1×10^6 cells/well in 96 well plate, flat.
# Mouse IFN-β quantification in culture supernatant was performed using the Mouse Interferon Beta ELISA kit (PBL InterferonSource); mouse IL-6, TNFα, IL-10, human TNFα and human IFNα were quantified using ELISA kit (eBioscience) respectively, according to manufacturer instructions.
# We have previously shown that GM-CSF-induced bone-marrow-derived DCs from GADD34^ΔC/ΔC mouse display limited capacity to express IFNβ and IL-6 in response to the dsRNA mimic polyriboinosinic:polyribocytidylic acid (poly(I:C)). We investigated whether this observation could be extended to other DC subsets and TLR ligands. WT and GADD34^ΔC/ΔC DC isolated directly from spleen or generated in vitro from bone-marrow progenitors, using either Flt3L- or GM-CSF-induced differentiation, were submitted to stimulation with LPS, poly(I:C) or CpG ODN and analyzed for IFN-β and IL-6 production (data not shown). […]
# [3] = GADD34ΔC/ΔC Flt3L-DCs, CpG ODN stimulation
compound,measurement,setting,value
"NC(N)=N/N=C/c1c(Cl)cccc1Cl [GBZ, 2-(2,6-dichlorobenzylidene)-hydrazinecarboximidamide]",rpS6 phosphorylation,[1],strong reduction
same,IFN-β production,[2]; [3],incapable of producing
same,IL-6 production,[2]; [3],incapable of producing
same,IFN-β production in response to TLR9 stimulation compared with Gadd34 genetic inactivation,[2]; data not shown,far stronger capacity to inhibit
same,IL-6 production compared with Gadd34 genetic inactivation,[2]; data not shown,superimposable to GADD34 deficiency
